The text below walks through data of patent US11414415B2, “6H-imidazo[4,5,1-ij]quinolone, synthesis method and use thereof” (HANGZHOU NORMAL UNIVERSITY, priority 2020, dated 2022).

This assay relates to A549 (lung cancer cell). In words: MTT tumor cell proliferation assay on A549 lung cancer cells. The note with it: for IC50: Homo sapiens, 48 h, 44 h culture + 4 h MTT, read at 570 nm, sample concentration 0.5 mg/mL (water as solvent). Format: cell-based. On the procedure: Biological activity assay was conducted on compounds I-d to I-f prepared in the above examples:
Original osimertinib was used as control.
Specific procedure was as follows: plating A549 cells in a 96-well plate at a cell density of 2×10^4 cells/mL; after placing in an incubator overnight at 37° C. in 5% CO2, adding samples to be screened (sample concentrations are given in Table 1; medication groups were given 10 μL of the drug at the corresponding concentration per well, and blank control group was given 10 μL of PBS per well); after culturing for 44 h, adding 10 μL of MTT per well to culture for additional 4 h; dissolving in DMSO, shaking, and detecting on a microplate reader at 570 nm.
Inhibitory concentration 50 (IC50) values of 6H-imidazo[4,5,1-ij]quinolone derivatives with structures as shown in formulas I-d to I-f and control drug original osimertinib against A549 (lung cancer cell) were detected.

What is called IC50 is the concentration at which inhibition is half-maximal. For the compound `Cc1ccc(-c2nc3cccc4c(=O)ccn2c34)cc1` [I-a], the IC50 was 11.2 µM. In the case of `O=c1ccn2c(-c3ccc(F)cc3)nc3cccc1c32` [I-b], the IC50 stood at 15.3 µM.

On to `O=c1ccn2c(-c3ccccc3Cl)nc3cccc1c32` [I-c], for which the concentration for half-maximal inhibition (IC50) was 16.2 µM. On to `O=c1ccn2c(-c3cccs3)nc3cccc1c32` [I-d], for which the IC50 amounted to 9.9 µM. The “IC50 value compared with osimertinib” value (statement in words) was “equivalent to anti-lung cancer drug osimertinib”. For `O=c1ccn2c(C3CC3)nc3cccc1c32` [I-e], the half-maximal inhibitory concentration (IC50) is 21.1 µM. Consider `COc1cc2nc(-c3ccccc3)n3ccc(=O)c(c1)c23` [I-f], for which the half-inhibitory concentration (IC50) came out at 12.3 µM. `C=CC(=O)Nc1cc(Nc2nccc(-c3cn(C)c4ccccc34)n2)c(OC)cc1N(C)CCN(C)C` [Osimertinib, osimertinib, reference compound]: the half-inhibitory concentration (IC50) was 9.74 µM.
